Source: patent US20140349970A1 (ABBVIE INC., priority 2009, published 2014)

Biological target: T1, Syk catalytic domain (aa 356-635 with a C-terminal His-tag) (Homo sapiens, UniProt P43405)
T1 construct: His-tag (C); made in house
Assay: In vitro Syk kinase activity measured by trFRET, Syk catalytic domain
Assay type: biochemical
Conditions: not given
Summary of the method: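 Kinase reaction: 0.14 nM His-tagged catalytic domain, 0.2 μM biotin-TYR1 peptide, 0.001 mM ATP in 50 mM MOPSO pH 6.5 with MgCl2, MnCl2, DTT, BSA, vanadate, ~60 min at rt, then EDTA quench. Phosphoproduct detected by trFRET (Eu anti-pTyr antibody/streptavidin-APC, 665 nm emission); IC50 from signal in linear range.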

Row | IC50 [µM] | SMILES
1 | 1 to 10 | CC(=O)N1CCC[C@H]1c1nc(-c2ccc(C(C)(C)O)cc2)c2cnc3[nH]ccc3n12 [AC.5.9]
2 | 0.1 to 1 | CN(C)CCNC(=O)c1ccc(-c2nc(C3CCCCC3)n3c2cnc2[nH]ccc23)cc1 [AC.3.26]
3 | 1 to 10 | COc1ccc(-c2nc(C)n3c2cnc2[nH]ccc23)c(OC)c1 [AC.1.1]
4 | 0.1 to 1 | CCc1c(-c2ccc(C(C)(C)O)cc2)[nH]c2ncc3cnc(N(C)C)n3c12 [S.1.2]
5 | 0.1 to 1 | Cc1nc(-c2ccc(S(=O)(=O)NC3CC3)cc2)c2cnc3[nH]ccc3n12 [AC.1.40]
6 | < 0.1 | CCc1c(-c2ccc(C(C)(C)O)cc2)[nH]c2ncc3cncn3c12 [S.1.1]
7 | < 0.1 | COc1ccc(-c2ncn3c2cnc2[nH]ccc23)cc1C [AC.4.10]
8 | > 10 | Cn1ncc2cnc3[nH]c(-c4cccn4CC(=O)O)cc3c21 [AN.1.2, 2-(2-(1-methyl-1,6-dihydropyrazolo[3,4-d]pyrrolo[2,3-b]pyridin-7-yl)-1H-pyrrol-1-yl)acetic acid]
9 | 0.1 to 1 | Cc1nc(-c2ccc(CN3CCOCC3)cc2)c2cnc3[nH]ccc3n12 [AH.1.1]
10 | 0.1 to 1 | Cc1nc(-c2ccc(CC(C)(C)O)cc2)c2cnc3[nH]ccc3n12 [AC.1.35]
11 | 1 to 10 | c1cnc(-c2nc(C3CCCCC3)n3c2cnc2[nH]ccc23)cn1 [AC.3.16]
12 | 0.1 to 1 | COc1ccc(-c2nc([C@@H]3CC[C@H](N)C3)n3c2cnc2[nH]ccc23)cc1 [P.3.1.2]
13 | 1 to 10 | COc1cccc(-c2nc(C3CCCCC3)n3c2cnc2[nH]ccc23)c1 [AC.3.1]
14 | < 0.1 | CC(C)(O)c1ccc(-c2nc([C@H]3CCC[C@H](N)C3)n3c2cnc2[nH]ccc23)cc1 [P.3.1.9]
15 | 0.1 to 1 | CC(=O)c1cccc(-c2nc(C3CCCCC3)n3c2cnc2[nH]ccc23)c1 [AC.3.4]
16 | 0.1 to 1 | Cn1ncc2cnc3[nH]c(-c4ccc[nH]4)cc3c21 [T.3.1.2]
17 | 0.1 to 1 | Cc1nc(-c2ccc(S(=O)(=O)C(C)C)cc2)c2cnc3[nH]ccc3n12 [AC.1.11]

Row | IC50 [µM] | SMILES
18 | < 0.1 | COc1ccc(-c2ncn3c2cnc2[nH]ccc23)cc1OC [AC.4.8]
19 | 1 to 10 | CC(C)(O)c1ccc(-c2nc(C3CCOCC3)n3c2cnc2[nH]cc(C#N)c23)cc1 [AE.1.1]
20 | 0.1 to 1 | CC1CN(Cc2nc(-c3ccc(C(C)(C)O)cc3)c3cnc4[nH]ccc4n23)CCN1 (stereo not shown) [P.3.1.13]
21 | > 10 | Cc1nc(-c2cccc3nccnc23)c2cnc3[nH]ccc3n12 [AC.1.5]
22 | 1 to 10 | COc1ncc(-c2nc(C)n3c2cnc2[nH]ccc23)cn1 [AC.1.23]
23 | 1 to 10 | COc1ccc(-c2nc(C)n3c2cnc2[nH]ccc23)c(F)c1 [AC.1.18]
24 | 0.1 to 1 | Cc1cnc2cnc3[nH]c(-c4ccc(C(C)(C)O)cc4)cc3n12 [S.1.10]
25 | 1 to 10 | CC(C)(O)c1ccc(-c2ncn3c2cnc2[nH]cc(C4=CCNCC4)c23)cc1 [AC.5.4]
26 | 0.1 to 1 | CCc1c(-c2ccc(C(C)(C)O)cc2)[nH]c2nc(C)c3cncn3c12 [S.1.7]
27 | < 0.1 | OC1(c2ccc(-c3ncn4c3cnc3[nH]ccc34)cc2)CCNCC1 [P.3.1.6]
28 | < 0.1 | Cc1cc(-c2nc(C)n3c2cnc2[nH]ccc23)ccc1N1CCN(C)CC1 [AC.1.30]
29 | 0.1 to 1 | Cc1nc(-c2ccc(S(=O)(=O)N(C)C)cc2)c2cnc3[nH]ccc3n12 [AC.1.10]
30 | 0.1 to 1 | COCCNC(=O)c1ccc(-c2nc(C3CCCCC3)n3c2cnc2[nH]ccc23)cc1 [AC.3.17]
31 | 0.1 to 1 | CC(=O)NCCc1ccc(-c2nc(C3CCCCC3)n3c2cnc2[nH]ccc23)cc1 [AC.3.19]
32 | 0.1 to 1 | OCc1ccc(-c2ncn3c2cnc2[nH]ccc23)cc1 [AC.4.2]
33 | < 0.1 | Cc1nc(-c2ccc(OCCN3CCOCC3)cc2)c2cnc3[nH]ccc3n12 [AC.1.14]

Same assay, conditions: Syk catalytic domain (aa 356-635), trFRET, 0.001 mM ATP

Row | IC50 [µM] | SMILES
34 | 0.1 to 1 | CNc1ncc2cnc3[nH]c(-c4ccc(C)cc4)cc3n12 [M.1.15]
35 | 0.1 to 1 | Cc1ccc(-c2cc3c(ncc4cnc(N(C)C)n43)[nH]2)cc1 [M.1.16]
36 | < 0.1 | Cn1ncc2cnc3[nH]c(-c4ccc(OCCCN5CCOCC5)cc4)cc3c21 [N.2.5]
37 | < 0.1 | Cn1ncc2cnc3[nH]c(-c4cccc(C(=O)NCCN5CCOCC5)c4)cc3c21 [N.1.6]
38 | 0.1 to 1 | COc1ccc2c(n1)c(-c1cc3c(ncc4cnn(C)c43)[nH]1)cn2C [N.1.116]
39 | < 0.1 | COc1ccc2c(c1)c(-c1cc3c(ncc4cnc(C5CCCOC5)n43)[nH]1)cn2C (stereo not shown) [M.1, 7-(5-Methoxy-1-methyl-1H-indol-3-yl)-1-(tetrahydro-2H-pyran-3-yl)-6H-imidazo[1,5-a]pyrrolo[2,3-e]pyrazine]
40 | 0.1 to 1 | CC(C)n1cc(-c2cc3c(ncc4cnn(C)c43)[nH]2)c2ccccc21 [N.1.82]
41 | 1 to 10 | Cc1ccc(-c2cc3c(ncc4cnn(C)c43)[nH]2)c(C)c1 [N.1.47]
42 | < 0.1 | Cc1nc(-c2ccc(C(C)(C)O)c(Cl)c2)c2cnc3[nH]ccc3n12 [N.1.108]
43 | 0.1 to 1 | CS(=O)(=O)c1cccc(-c2cc3c(ncc4cnc([C@@H]5CC[C@H](N)C5)n43)[nH]2)c1 (relative stereo) [T.1.1.5, (cis)-3-(7-(3-(Methylsulfonyl)phenyl)-6H-imidazo[1,5-a]pyrrolo[2,3-e]pyrazin-1-yl)cyclopentanamine]
44 | < 0.1 | COc1ccc2[nH]cc(-c3cc4c(ncc5cnn(C)c54)[nH]3)c2c1 [N.1.19]
45 | 0.1 to 1 | COc1ccc(-c2nc(C)n3c2cnc2[nH]ccc23)cc1C(=O)NCCN(C)C [J.1.7.2]
46 | 0.1 to 1 | Cc1nc(-c2ccc(C(C)(C)O)cc2)c2cnc3[nH]c(Br)cc3n12 [Example 11, 2-(4-(7-Bromo-1-methyl-6H-imidazo[1,5-a]pyrrolo[2,3-e]pyrazin-3-yl)phenyl)propan-2-ol]
47 | < 0.1 | COCCCc1ncc2cnc3[nH]c(-c4cn(C)c5ccc(OC)cc45)cc3n12 [M.1.14]
48 | 1 to 10 | Cn1ncc2cnc3[nH]c(-c4cccn4CC(=O)N4CCOCC4)cc3c21 [J.2.3.2]
49 | < 0.1 | CN(C)C(=O)c1ccc2c(c1)c(-c1cc3c(ncc4cnn(C)c43)[nH]1)cn2C [J.1.8.4]
50 | < 0.1 | CC(=O)NC(C)(C)c1ccc(-c2nc(C3CCCCC3)n3c2cnc2[nH]ccc23)cc1 [J.2.1.4]
51 | 0.1 to 1 | CCc1c[nH]c2ncc3c(-c4ccc(S(N)(=O)=O)cc4)nn(C)c3c12 [N.1.72]
52 | < 0.1 | CC(=O)c1ccc(-c2cc3c(ncc4cnc(C(=O)N5CCCC5)n43)[nH]2)cc1 [J.1.5.1]
53 | < 0.1 | CC(C)(O)c1ccc(-c2nc(C3CCCNC3)n3c2cnc2[nH]ccc23)cc1 (stereo not shown) [D.2.1]
54 | < 0.1 | CN(C)S(=O)(=O)c1cccc(-c2cc3c(ncc4cnn(C)c43)[nH]2)c1 [N.1.32]
55 | < 0.1 | Cn1ncc2cnc3[nH]c(-c4cccc(S(N)(=O)=O)c4)cc3c21 [N.1.13]
56 | < 0.1 | COc1ccc2c(c1)c(-c1cc3c(ncc4cnn(C)c43)[nH]1)cn2CCN1CCOCC1 [N.2.11]

Row | IC50 [µM] | SMILES
57 | > 10 | CS(=O)(=O)c1ccc(-n2c(=O)n(C3CCCCC3)c3c4cc[nH]c4ncc32)cc1 [M.1.24]
58 | < 0.1 | Cc1nc(-c2ccc(C3(O)CCN(C(=O)CC#N)CC3)cc2)c2cnc3[nH]ccc3n12 [J.1.3.1]
59 | 1 to 10 | c1ccc(-c2nc(C3CCCCC3)n3c2cnc2[nH]ccc23)cc1 [Example 2, 1-Cyclohexyl-3-phenyl-6H-imidazo[1,5-a]pyrrolo[2,3-e]pyrazine]
60 | 0.1 to 1 | CCc1c(-c2ccc(C(C)(C)O)cc2)[nH]c2ncc3nccn3c12 [Example 4, 2-(4-(1-Ethyl-3H-imidazo[1,2-a]pyrrolo[2,3-e]pyrazin-2-yl)phenyl)propan-2-ol]
61 | 1 to 10 | CN(C)CC1CCN(c2nc(-c3ccc(S(C)(=O)=O)cc3)c3cnc4[nH]ccc4n23)C1 (stereo not shown) [N.1.64]
62 | 1 to 10 | CC(=O)N[C@@H]1C[C@@H](c2nc(-c3ccc(C(C)(C)O)cc3)c3cnc4[nH]ccc4n23)N(S(=O)(=O)C2CC2)C1 (racemic) [N.1.65]
63 | < 0.1 | CS(=O)(=O)c1ccc(-c2ncn3c2cnc2[nH]ccc23)cc1 [N.1.90]
64 | < 0.1 | COc1ccc2c(c1)c(-c1cc3c(ncc4cnc(C5CCOCC5)n43)[nH]1)cn2C [M.1.10]
65 | 1 to 10 | CCc1c(-c2cn(C)c3ccc(OC)cc23)[nH]c2ncc3cnn(C)c3c12 [N.1.35]
66 | < 0.1 | Cc1ncc2cnc3[nH]c(-c4cccc(S(C)(=O)=O)c4)cc3n12 [M.1.3]
67 | 0.1 to 1 | COC(=O)Cn1cc(-c2nc(C)n3c2cnc2[nH]ccc23)cn1 [Example 12, Methyl 2-(4-(1-methyl-6H-imidazo[1,5-a]pyrrolo[2,3-e]pyrazin-3-yl)-1H-pyrazol-1-yl)acetate]
68 | 0.1 to 1 | CCc1c(-c2cccc(S(C)(=O)=O)c2)[nH]c2ncc3cnn(C)c3c12 [N.1.21]
69 | 0.1 to 1 | CC(C)(O)c1ccc(-c2nc(C(F)(F)F)n3c2cnc2[nH]ccc23)cc1 [N.1.58]
70 | < 0.1 | COc1ccc2c(c1)c(-c1cc3c(ncc4cnc([C@@H]5CC[C@H](NS(=O)(=O)C6CC6)C5)n43)[nH]1)cn2C [K.1.1]
71 | < 0.1 | Cc1cc(-c2cc3c(ncc4cnn(C)c43)[nH]2)ccc1N1CCN(C)CC1 [N.1.115]
72 | 0.1 to 1 | COc1ccc2c(c1)c(-c1nc(C)n3c1cnc1[nH]ccc13)cn2C [N.1.55]
73 | < 0.1 | COc1ccc2c(c1)c(-c1cc3c(ncc4cnc(CCC#N)n43)[nH]1)cn2C [M.1.13]
74 | 0.1 to 1 | Cc1ncc2cnc3[nH]c(-c4cnn(C)c4)cc3n12 [M.2.1]
75 | < 0.1 | CC(C)(O)c1ccc(-c2nc(-c3ccccc3CO)n3c2cnc2[nH]ccc23)cc1 [N.1.109]
76 | 0.1 to 1 | Cc1ncc2cnc3[nH]c(-c4cccc(C(=O)NCCN5CCOCC5)c4)cc3n12 [M.1.11]
77 | < 0.1 | CC(=O)NCc1cccc(-c2cc3c(ncc4cnn(C)c43)[nH]2)c1 [N.1.3]
78 | 0.1 to 1 | CN(C)CCOc1ccc(-c2cc3c(ncc4cnn(C)c43)[nH]2)cc1 [N.2.3]
79 | < 0.1 | COc1ccc2c(c1)c(-c1cc3c(ncc4cnc(CCCO)n43)[nH]1)cn2C [M.1.7]
